The text below walks through data of patent publication EP4806891A1 (Kangbaida (Sichuan) Biotechnology Co., Ltd., priority 2023, dated 2025).

The test addresses T1, HEK-Blue-hTLR9 cells (Homo sapiens, UniProt Q9NR96).
T1 construct: expressed in transfected cells; host or cells: HEK-Blue-hTLR9 cells (HEK293-derived reporter line)
T1 sequence (Q9NR96 26-1032): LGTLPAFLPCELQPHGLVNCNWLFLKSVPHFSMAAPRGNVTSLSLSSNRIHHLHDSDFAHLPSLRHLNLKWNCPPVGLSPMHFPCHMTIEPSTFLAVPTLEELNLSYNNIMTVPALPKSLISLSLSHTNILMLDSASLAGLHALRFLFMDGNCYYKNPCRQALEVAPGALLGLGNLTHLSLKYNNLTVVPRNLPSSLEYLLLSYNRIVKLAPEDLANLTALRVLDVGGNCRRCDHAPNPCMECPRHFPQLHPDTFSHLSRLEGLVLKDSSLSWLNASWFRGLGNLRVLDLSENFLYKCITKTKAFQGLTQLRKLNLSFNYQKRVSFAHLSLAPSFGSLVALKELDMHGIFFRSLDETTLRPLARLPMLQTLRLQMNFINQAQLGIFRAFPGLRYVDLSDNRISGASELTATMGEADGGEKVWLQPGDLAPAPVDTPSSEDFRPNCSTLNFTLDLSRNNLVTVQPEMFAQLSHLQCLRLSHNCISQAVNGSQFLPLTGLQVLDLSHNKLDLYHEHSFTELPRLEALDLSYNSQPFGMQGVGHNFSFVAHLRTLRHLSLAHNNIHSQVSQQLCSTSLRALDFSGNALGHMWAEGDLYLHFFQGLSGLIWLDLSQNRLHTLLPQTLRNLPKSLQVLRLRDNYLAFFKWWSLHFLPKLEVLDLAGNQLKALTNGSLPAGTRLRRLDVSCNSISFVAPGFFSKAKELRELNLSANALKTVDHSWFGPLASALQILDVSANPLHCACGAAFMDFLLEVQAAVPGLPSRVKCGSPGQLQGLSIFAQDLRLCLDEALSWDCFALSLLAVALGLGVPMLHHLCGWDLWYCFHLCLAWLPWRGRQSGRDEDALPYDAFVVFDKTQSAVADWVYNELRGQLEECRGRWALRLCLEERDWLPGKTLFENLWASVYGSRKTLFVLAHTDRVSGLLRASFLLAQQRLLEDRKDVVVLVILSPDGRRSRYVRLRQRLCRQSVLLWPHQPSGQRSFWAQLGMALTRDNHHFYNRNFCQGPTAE
In words: HEK-Blue-hTLR9 cell inhibition assay. The format is cell-based. The settings on record: ODN2006 1 µM, 16 h, OD 620 nm, read-out: TLR9 IC50. Put shortly:
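Cells were pre-incubated 4 h, then co-treated 16 h at 37 °C with compound (10 doses, 0.5–10000 nM final) plus R848 (0.8 µM for TLR7, 3 µM for TLR8) or ODN2006 (1 µM, TLR9). Reporter OD620 gave inhibition relative to DMSO blank and agonist-only controls; IC50 came from curve fitting.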

Bounds are passed on as bounds.

In general, IC50 refers to the point on the concentration scale where inhibition reaches its midpoint.

`FC(F)(F)c1ccc(N2C[C@]3(c4nnc(C5CCNCC5)o4)C[C@]3(C(F)(F)F)C2)c2cccnc12` [Compound 75, 2-(piperidin-4-yl)-5-((1S,5R)-5-(trifluoromethyl)-3-(8-(trifluoromethyl)quinolin-5-yl)-3-azabicyclo[3.1.0]hexan-1-yl)-1,3,4-oxadiazole]: the IC50 is more than 1 µM.

For `FC(F)(F)c1ccc(N2C[C@]3(c4nnc(C5CCN(CC6CC6)CC5)o4)C[C@]3(C(F)(F)F)C2)c2cccnc12` [Compound 76, 2-(1-(cyclopropylmethyl)piperidin-4-yl)-5-((1S,5R)-5-(trifluoromethyl)-3-(8-(trifluoromethyl)quinolin-5-yl)-3-azabicyclo[3.1.0]hexan-1-yl)-1,3,4-oxadiazole], the IC50 is more than 1 µM.

Take `NC(=O)CN1CCC(c2nnc([C@]34CN(c5ccc(C(F)(F)F)c6ncccc56)C[C@@]3(C(F)(F)F)C4)o2)CC1` [Compound 77, 2-(4-(5-((1S,5R)-5-(trifluoromethyl)-3-(8-(trifluoromethyl)quinolin-5-yl)-3-azabicyclo[3.1.0]hexan-1-yl)-1,3,4-oxadiazol-2-yl)piperidin-1-yl)acetamide]: the IC50 was more than 10 µM.

With `CN1[C@@H]2CC[C@H]1C[C@H](c1nnc([C@]34CN(c5ccc(C(F)(F)F)c6ncccc56)C[C@@]3(C(F)(F)F)C4)o1)C2` [Compound 79, 2-((1R,3S,5S)-8-methyl-8-azabicyclo[3.2.1]octan-3-yl)-5-((1S,5R)-5-(trifluoromethyl)-3-(8-(trifluoromethyl)quinolin-5-yl)-3-azabicyclo[3.1.0]hexan-1-yl)-1,3,4-oxadiazole], the IC50 was more than 1 µM.

`N#Cc1ccc(N2C[C@]3(c4nnc(C5CCNCC5)o4)C[C@]3(C(F)(F)F)C2)c2c(F)cnn12` [Compound 80, 3-fluoro-4-((1S,5R)-1-(5-(piperidin-4-yl)-1,3,4-oxadiazol-2-yl)-5-(trifluoromethyl)-3-azabicyclo[3.1.0]hexan-3-yl)pyrazolo[1,5-a]pyridine-7-carbonitrile]: the IC50 was more than 1 µM.

On to `NC12CCC(c3nnc([C@]45CN(c6ccc(C(F)(F)F)c7ncccc67)C[C@@]4(C(F)(F)F)C5)o3)(CC1)CC2` [Compound 81, 4-(5-((1S,5R)-5-(trifluoromethyl)-3-(8-(trifluoromethyl)quinolin-5-yl)-3-azabicyclo[3.1.0]hexan-1-yl)-1,3,4-oxadiazol-2-yl)bicyclo[2.2.2]octan-1-amine], for which the IC50 was more than 1 µM.

As for `CN1CCC(c2nnc([C@]34CN(c5ccc(C#N)n6ncc(Br)c56)C[C@@]3(C(F)(F)F)C4)o2)CC1` [Compound 83, 3-bromo-4-((1S,5R)-1-(5-(1-methylpiperidin-4-yl)-1,3,4-oxadiazol-2-yl)-5-(trifluoromethyl)-3-azabicyclo[3.1.0]hexan-3-yl)pyrazolo[1,5-a]pyridine-7-carbonitrile], the IC50 is more than 1 µM.

`CN1CCC(c2nnc([C@]34CN(c5ccc(C#N)n6ncc(Cl)c56)C[C@@]3(C(F)(F)F)C4)o2)CC1` [Compound 84, 3-chloro-4-((1S,5R)-1-(5-(1-methylpiperidin-4-yl)-1,3,4-oxadiazol-2-yl)-5-(trifluoromethyl)-3-azabicyclo[3.1.0]hexan-3-yl)pyrazolo[1,5-a]pyridine-7-carbonitrile]: the IC50 is more than 1 µM.

Take `CN1CCC(c2nnc([C@]34CN(c5c(Br)cc(C#N)n6ncc(Br)c56)C[C@@]3(C(F)(F)F)C4)o2)CC1` [Compound 85, 3,5-dibromo-4-((1S,5R)-1-(5-(1-methylpiperidin-4-yl)-1,3,4-oxadiazol-2-yl)-5-(trifluoromethyl)-3-azabicyclo[3.1.0]hexan-3-yl)pyrazolo[1,5-a]pyridine-7-carbonitrile]: the IC50 was more than 1 µM.

`CN1CCC(c2nnc([C@]34CN(c5c(Br)cc(C#N)n6nccc56)C[C@@]3(C(F)(F)F)C4)o2)CC1` [Compound 86, 5-bromo-4-((1S,5R)-1-(5-(1-methylpiperidin-4-yl)-1,3,4-oxadiazol-2-yl)-5-(trifluoromethyl)-3-azabicyclo[3.1.0]hexan-3-yl)pyrazolo[1,5-a]pyridine-7-carbonitrile]: the IC50 is more than 1 µM.

Consider `CN1CCC(c2nnc([C@]34CN(c5ccc(C(F)(F)F)n6nccc56)C[C@@]3(C(F)(F)F)C4)o2)CC1` [Compound 87, 2-(1-methylpiperidin-4-yl)-5-((1S,5R)-5-(trifluoromethyl)-3-(7-(trifluoromethyl)pyrazolo[1,5-a]pyridin-4-yl)-3-azabicyclo[3.1.0]hexan-1-yl)-1,3,4-oxadiazole], for which the IC50 is more than 1 µM.

Consider `CN1CCC(F)(c2nnc([C@]34CN(c5ccc(C#N)n6nccc56)C[C@@]3(C(F)(F)F)C4)o2)CC1` [Compound 90, 4-((1S,5R)-1-(5-(4-fluoro-1-methylpiperidin-4-yl)-1,3,4-oxadiazol-2-yl)-5-(trifluoromethyl)-3-azabicyclo[3.1.0]hexan-3-yl)pyrazolo[1,5-a]pyridine-7-carbonitrile], for which the IC50 is more than 1 µM.

Consider `CN1CCC(c2nnc([C@]34CN(c5ccc(C#N)c6ncnn56)C[C@@]3(C(F)(F)F)C4)o2)CC1` [Compound 91, 5-((1S,5R)-1-(5-(1-methylpiperidin-4-yl)-1,3,4-oxadiazol-2-yl)-5-(trifluoromethyl)-3-azabicyclo[3.1.0]hexan-3-yl)-[1,2,4]triazolo[1,5-a]pyridine-8-carbonitrile], for which the IC50 is more than 10 µM.

Regarding `CN1CCC(Oc2nnc([C@]34CN(c5ccc(C(F)(F)F)c6ncccc56)C[C@@]3(C(F)(F)F)C4)o2)CC1` [Compound 92, 2-((1-methylpiperidin-4-yl)oxy)-5-((1S,5R)-5-(trifluoromethyl)-3-(8-(trifluoromethyl)quinolin-5-yl)-3-azabicyclo[3.1.0]hexan-1-yl)-1,3,4-oxadiazole], the IC50 was more than 1 µM.

Take `CN1CCC(Oc2nnc([C@]34CN(c5ccc(OC(F)(F)F)c6ncccc56)C[C@@]3(C(F)(F)F)C4)o2)CC1` [Compound 93, 2-((1-methylpiperidin-4-yl)oxy)-5-((1S,5R)-5-(trifluoromethyl)-3-(8-(trifluoromethoxy)quinolin-5-yl)-3-azabicyclo[3.1.0]hexan-1-yl)-1,3,4-oxadiazole]: the IC50 is more than 10 µM.

As for `CN1CCC(O)(c2nnc([C@]34CN(c5ccc(C(F)(F)F)c6ncccc56)C[C@@]3(C(F)(F)F)C4)o2)CC1` [Compound 94, 1-methyl-4-(5-((1S,5R)-5-(trifluoromethyl)-3-(8-(trifluoromethyl)quinolin-5-yl)-3-azabicyclo[3.1.0]hexan-1-yl)-1,3,4-oxadiazol-2-yl)piperidin-4-ol], the IC50 was more than 1 µM.

`CN1CC(Cc2nnc([C@]34CN(c5ccc(C(F)(F)F)c6ncccc56)C[C@@]3(C(F)(F)F)C4)o2)C1` [Compound 95, 2-((1-methylazetidin-3-yl)methyl)-5-((1S,5R)-5-(trifluoromethyl)-3-(8-(trifluoromethyl)quinolin-5-yl)-3-azabicyclo[3.1.0]hexan-1-yl)-1,3,4-oxadiazole]: the IC50 was more than 1 µM.

Turning to `FC(F)(F)Oc1ccc(N2C[C@]3(c4nnc(C5(F)CCNCC5)o4)C[C@]3(C(F)(F)F)C2)c2cccnc12` [Compound 96, 2-(4-fluoropiperidin-4-yl)-5-((1S,5R)-3-(8-(trifluoromethoxy)quinolin-5-yl)-5-(trifluoromethyl)-3-azabicyclo[3.1.0]hexan-1-yl)-1,3,4-oxadiazole], the IC50 was more than 1 µM.
